Data published in US20050038022A1, “Method for treatment of cancer and compositions for use therein” (Unisearch Limited, priority 2001, published 2005).

Tests used:
[1] = tested on: HTC; experiment: [3H]thymidine incorporation assay, HTC; format: cell-based, rat; conditions: 5 days
Description: (§1) HepG2, Hep3-B, Hep1-6, SKHEP-1, PLC/PRF/5, and HTC cells were obtained from European Collection of Cell Cultures (ECACC; U.K), Novikoff was obtained from Cancer Research Centre (DKFZ) Heidelberg, Germany. Cells were cultured in MEM or DMEM supplemented with 10% FBS, 50 units/ml penicillin, 50 units/ml streptomycin, 25 μg/ml amphotericin B (Gibco, Grand Island, N.Y.) and maintained subconfluent at 37° C. in humidified incubators containing 5% CO2. Albendazole (Sigma, Australian subsidiary) was dissolved in absolute ethanol at concentrations that were 1000-fold higher than the final medium concentration.

[2] = tested on: HCC cell lines; experiment: [3H]thymidine incorporation, all HCC cell lines (summary); conditions: 1000 nM albendazole
Description: For the study of [^3H]thymidine incorporation, adherent cells (5-10×10^4) were plated onto 24-well Corning tissue culture dishes and were exposed to culture medium (5% FBS) containing the vehicle (0.1% ethanol) or different concentrations of albendazole (10^−8 to 10^−6 M). For Novikoff, a detached rat cell line, 2500 cells were suspended in 2 ml of DMEM (5% FBS) and kept under the same condition as for attached cells. Media were replaced with fresh media on alternate days. At the end of the treatment period (5 days), cell cultures were assayed for thymidine incorporation by the addition of 0.5 μCi of [^3H]thymidine (60 Ci/mmol. ICN Biochem, Irvine, Calif.) to each well for the last 4 h of culture. The amount of radioactivity incorporated into cells was determined using a β-scintillation counter. […] For the recovery experiments, SKHEP-1 cells were treated for 1 day with different concentrations of albendazole and then either assayed for [^3H]thymidine incorporation or the medium was replaced and the cells treated with fresh medium with out the drug for a further 4 days at the end of which, [^3H] thymidine incorporation assay was performed.
[^3H]Thymidine incorporation assay was used to determine the effect of albendazole on cell proliferation in a number of human (HepG2, Hep3-B, PLC/PRF/5, SKHEP-1), rat (HTC and Novikoff) and mice (Hep1-6) HCC cell lines.

[3] = tested on: HepG2; experiment: Combination with methimazole (MT), HepG2 growth; format: cell-based; conditions: HepG2, albendazole alone 0.25, 0.1 and 0.01uM, 5 days
Description: The effect of inhibition of metabolism of albendazole on its antiproliferative activity was investigated using […] and the methimazole as an inhibitor of albendazole
5000 cells each of HepG2 and S EP1 were plated into 24 wells plates and treated for 5 days with various concentrations of albendazole alone or together with MT.

[4] = tested on: SKHEP-1 cells; experiment: Cell cycle analysis by flow cytometry; format: cell-based, human; conditions: 3 days (FIG. 3)
Description: SKHEP-1 cells (5×10^4) were plated onto six-well tissue culture plates. Triplicate samples were treated with the indicated concentrations of albendazole (100, 250 and 1000 nM). The medium was changed everyday. After 72 h the relevant group of cells were collected, washed twice with phosphate buffer and treated with ribonuclease, Triton X-100 and propidium iodide (Sigma) based on the method described by Taylor [12]. The percentage of cells within the G1, S, and G2-M phases of the cell cycle were determined using a FACScan flow cytometer (Becton Dickinson FACSort) and Multifit LT cell cycle analysis software (Verity Software INC.)

[5] = tested on: liver tumors (CRC or HCC); experiment: Albendazole in patients with advanced malignancy (phase 1 trial); format: in vivo, human
Description: The study was single-centre, open and non-controlled. Nine patients (8 male and 1 female) with either advanced CRC and hepatic metastasis or HCC were included in this study. One patient with neuroendocrine cancer and mesothelioma was also treated on a compassionate basis. The patients aged between 38-79 years were inoperable and had failed existing chemotherapy and also, except for two, had measurable and increasing tumor markers. The majority had also already failed hepatic artery chemotherapy. The diagnosis of CRC or HCC was made by ultrasound, CT or MRI scan, confirmed by histology and by determination of CEA or AFP levels for CRC or HCC respectively. Only patients with expected survival of more than one month were enrolled into the study. The study was approved by the Human Ethics Committee for Research of SESAHS. The protocol and the aim of the study was clearly explained to each patient and informed consent obtained. The duration of this study was four weeks but was to be stopped if leukopenia (WBC<[…]) or severe hepatocellular injury (ALT or AST 2× upper limit) developed. All patients received albendazole (400 mg scored tablets, Smith Kline Beecham, Australian subsidiary) 10 mg/kg orally in two or three divided doses for a planned duration of four weeks. This is the clinical dose of albendazole employed in the treatment of parasitic diseases. Patients were evaluated every three days by clinical examination together with full blood tests to monitor tumor markers, hematopoesis, liver and kidney function toxicity. A partial response (PR) was defined as a 50% or more decrease in the value of the markers. In addition there must be no new lesions or progression of any other lesions. Stable disease was defined as a decrease of less than 50%, or an increase of less than 25% in the value of tumor markers, while progressive disease (PD) was a 25% or more increase in the value of the tumor markers or the appearance of any new lesions.

[6] = tested on: Hep1-6; experiment: [3H]thymidine incorporation assay, Hep1-6; format: cell-based, mice; conditions: 5 days
Description: as §1

[7] = tested on: NIH:OVCAR-3; experiment: Thymidine assay, ovarian cancer cell line; format: cell-based, human
Description: To study the feasibility of using albendazole in the treatment of peritoneal disease, the human ovarian cancer cell line NIH:OVCAR-3 was selected. This is a cell line that grows quite slowly but is tumorogenic in nude mice therefore allowing for the drug to be studied under both in-vitro and in-vivo conditions.
After finding the right conditions for the growth of cells in culture, cells were treated for 5 days with various concentrations of albendazole.

[8] = tested on: liver, colorectal, prostate and leukeamic cell lines; experiment: Albendazole/ABS side by side in various cell lines (general); format: cell-based; conditions: 5 days
Description: In order to be able to test ABS, a proper solvent had to be found. […] Therefore to allow direct comparison between the 2 compounds, all subsequent experiments were run using 0.5% DMSO for both ABS and albendazole. In the cell lines examined, albendazole produced very similar results to what we had previously reported for the drug in liver cancer cells.
Both albendazole and ABS were tested side by side against various cell lines as follows: • Liver—HepGZ Hep3B, SKHEP-1 • Colorectal—170, LOVO, HT-29 • Prostate—PC3, LNCap, Du145 • Leukeamic—HL60
The fist 9 cell lines were used to compare effectiveness and potency while, the last one was used to assess toxicity on bone marrow (as a rough guide).
Cells were treated with various concentrations of each compound for a period of 5 days.

[9] = tested on: HepG2; experiment: [3H]thymidine incorporation assay, HepG2; format: cell-based, human; conditions: 5 days
Description: as §1

[10] = tested on: Novikoff; experiment: [3H]thymidine incorporation assay, Novikoff; format: cell-based, rat; conditions: 5 days
Description: as §1

In the case of CCCSc1ccc2nc(NC(=O)OC)[nH]c2c1 [albendazole, methyl 5-propylthio-1H-benzimidazole-2-yl carbamate], the “[3H]thymidine incorporation” value ([1]; albendazole 10 nM) is reported as 98.4 ± 7.5 % control, the “[3H]thymidine incorporation” value ([1]; albendazole 100 nM) is reported as 86.0 ± 6.9 % control and the “[3H]thymidine incorporation” value ([1]; albendazole 500 nM) is reported as 28.5 ± 2.2 % control. For the same compound, the “[3H]thymidine incorporation” value ([1]; albendazole 1000 nM) was 11.4 ± 1.3 % control, the thymidine incorporation [2] was “less than 20 % of control values” and the growth inhibition [3] was “no growth inhibition”. The “effect on cell cycle distribution” value ([4]; SKHEP-1, 250 nM) was “accumulation of cells in the G0-G1 phase”, the “effect on cell cycle distribution” value ([4]; SKHEP-1, 1000 nM) was “arrest and accumulation of cells in the G2-M phase” and the “disease outcome by tumor markers” value ([5]; 10 mg/kg/day oral, planned 28 days, nine patients (FIG. 6)) was “stabilization of the disease in three, and progression of the disease in the other two patients”. The “liver and kidney function tests” value ([5]; during the course of the trial, 10 mg/kg/day oral) was “no significant changes”, the “Comments (adverse event)” value ([5]; patient 1, HCC, 19 days treatment) was “neutropenia;” and the “Comments (adverse event)” value ([5]; patient 2, CRC, 14 days treatment) was “neutropenia;”. The “Comments (adverse event)” value ([5]; patient 8, CRC) was “neutropenia”, the “serum CEA levels” value ([5]; patient 9, for the duration of the treatment (4 weeks)) was “less than 10 μg/L” and the disease outcome ([5]; patient number 1 (HCC), treatment stopped on day 19) was “stabilization of the disease”. The fatal outcome ([5]; patient number 1, after stopping albendazole, almost certainly related to therapy) was “died of neutropaenic sepsis”, the neutropenia ([5]; patients 1, 2 and 8, drug had to be withdrawn) was “significant neutropenia developed” and the “serum CEA levels” value ([5]; patients 6, 7 and 8, 10 mg/kg/day oral) was “stable CEA levels”. The “[3H]thymidine incorporation” value ([6]; Hep1-6, albendazole 10 nM) was 97.7 ± 4.3 % control, the “[3H]thymidine incorporation” value ([6]; Hep1-6, albendazole 100 nM) was 79.5 ± 3.2 % control and the “[3H]thymidine incorporation” value ([6]; Hep1-6, albendazole 500 nM) was 28.1 ± 2.5 % control. For the same compound, the “[3H]thymidine incorporation” value ([6]; Hep1-6, albendazole 1000 nM) was 5.6 ± 0.6 % control, the inhibition at 0.25 µM ([7]; Homo sapiens, 120 h, OVCAR-3, 0.25 micromoles/L, 5 days) was ~90% and the inhibition at 0.5 µM ([7]; Homo sapiens, 120 h, OVCAR-3, 0.5 micromoles/L, 5 days, read-out: inhibition of cell growth) was 100%. For the same compound, the “lowest concentration with an effect on cell proliferation” value ([7]; OVCAR-3, 5 days) was 0.001 µmol/L, the “inhibition of proliferation (3H-thymidine uptake)” value ([7]; OVCAR-3 in vitro (FIG. 5)) was “dose dependent inhibition of proliferation” and the “degree of activity relative to liver or colorectal cancer cells” value ([7]; OVCAR-3 versus liver or colorectal cancer cells, fold) was ~10. For the same compound, the “antiproliferative activity at 0.25 micromoles/L” value ([8]; 0.25 micromoles/L) was “dramatically increasing”, the inhibition at 1 µM ([8]; 120 h, 1 micromoles/L) was ~100% and the “concentration at which antiproliferative activity becomes evident” value ([8]; 0.5% DMSO, in general) was 0.01 µmol/L. For the same compound, the “[3H]thymidine incorporation” value ([9]; HepG2, albendazole 10 nM) was 93.1 ± 5.6 % control, the “[3H]thymidine incorporation” value ([9]; HepG2, albendazole 100 nM) was 72.9 ± 6.3 % control and the “[3H]thymidine incorporation” value ([9]; HepG2, albendazole 500 nM) was 12.2 ± 2.9 % control. The “[3H]thymidine incorporation” value ([10]; albendazole 10 nM) was 96.5 ± 8.8 % control, the “[3H]thymidine incorporation” value ([10]; albendazole 100 nM) was 71.6 ± 5.9 % control and the “[3H]thymidine incorporation” value ([10]; albendazole 500 nM) was 29.2 ± 3.3 % control. The “[3H]thymidine incorporation” value ([10]; albendazole 1000 nM) was 10.3 ± 1.8 % control.
